Test results from US20160178628A1, “Electrical Cell-substrate Impedance Sensor (ECIS)” (priority 2015, published 2016).

Tests used:
[1] = tested on: MCF-7 cells; experiment: SiNW-ECIS impedance and capacitance measurement of drug-treated MCF-7 cells; format: cell-based, human; details: for change of norm in impedance of treated cells, T1 vs. T2: 2 hours vs. 6 hours after drug incubation; for norm of capacitive changes, control sample more than treated sample: 6 hours after drug incubation (T2)
Description: In this example, the diagnostic response of cells membrane to extremely low dose of antitubulin drugs is investigated. Initially, MCF-7 cell lines, isolated from grade I human breast tumors, were obtained from the National Cell Bank of Iran (Pasteur Institute). Then, cells were maintained in a CO2 incubator (37° C., 5% CO2) in RPMI-1640 medium supplemented with 5% fetal bovine serum, and 1% penicillin/streptomycin. The fresh medium was replaced every other day. Then, the cultured cells were dropped on the surface of the SiNW-ECIS, designed and fabricated pursuant to teachings of the present application. Prior to each experiment, cells were trypsinized to be detached from the substrate and resuspended on the SiNW surface. To minimize the effect of trypsinization, the procedure may last for less than 4 minutes at room temperature of about 20° C. The samples were held in an incubator for about 4 hours to achieve cells attachment on the SiNWs. Thereafter, the ABZ drug with low concentrations of about 2.1 nano-moles per liter and the PTX drug with low concentrations of about 0.1 nano-moles per liter were added to individual samples. Finally, the signal recording and biological assays were investigated about 2 hours and 6 hours after the drug treatment (6 hours and 10 hours after the beginning of culturing process).
Referring to FIGS. 12A-12G, comparative normalized diagrams of impedance (designated by ΔZ % and represented by solid black lines) and capacitance changes (designated by ΔC % and represented by dashed grey lines) are illustrated for MCF-7 cells seeded on SiNW electrodes after treating by 2.1 nano-moles per liter of ABZ and 0.1 nano-moles per liter of PTX. The time interval between the drug incubation and the signal extraction are 2 hours (designated by T1) and 6 hours (designated by T2). In addition, the same diagrams are plotted for control sample prepared with no drug treatment stage.
According to the method described in the present example, the samples were maintained in an incubator so that the signal extraction was repeated 10 hours after cells dropping (6 hours after drug incubation for treated samples) to monitor the time evolution of drug induced MT polymerization/depolymerization on bioelectrical response of the membrane.

[2] = tested on: tubulin assemblies of MCF-7 cells; experiment: Confocal microscopy of tubulin assemblies of MCF-7 cells; format: cell-based, human
Description: In addition, an un-treated control sample was prepared as reference for comparison. Then, samples were washed with PBS and permeabilized with microtubule stabilizing buffer [80 mM PIPES-KOH (pH 6.8), 5 mM EGTA, and 1 mM MgCl2 containing 0.5% Triton X-100] for 5 min at room temperature before being fixed with chilled absolute methanol for 10 min at −20° C. Thereafter, the fixed cells were washed and incubated with monoclonal mouse anti-α-tubulin antibody (Sigma Co.) for 1 hour at room temperature followed by incubation with FITC-conjugated antimouse IgG antibody (Santa Cruz Biotechnology). The stained cells were mounted with Vectashield (Vector Laboratories, Burlingame, Calif.) and observed by confocal microscopy.

[3] = MCF-7, ABZ 2.1 nano-moles per liter, 2 hours after drug incubation (T1)
[4] = MCF-7, ABZ 2.1 nano-moles per liter
[5] = MCF-7, PTX 0.1 nano-moles per liter, 2 hours after treatment (T1)
[6] = MCF-7, PTX 0.1 nano-moles per liter

Row | Structure (SMILES) | changes in membrane impedance versus control [1, 3] [%] | variations in capacitance of the sensor versus control [1, 3] [%] | change of norm in impedance of treated cells, T1 vs. T2 [1, 4] | norm of capacitive changes, control sample more than treated sample [1, 4] | spindle / microtubule morphology (confocal image) ([2]; MCF-7, ABZ 2.1 nano-moles per liter, 2 hours after treatment) | spindle / microtubule morphology (confocal image) ([2]; MCF-7, ABZ 2.1 nano-moles per liter, 6 hours after treatment) | variation in mean capacitance of the sensor versus control [1, 5] | variation in mean impedance of the sensor versus control [1, 5] | change of norm in impedance of treated cells, T1 vs. T2 [1, 6] [%] | norm of capacitive changes, control sample more than treated sample [1, 6] [%] | spindle / microtubule morphology (confocal image) ([2]; MCF-7, PTX 0.1 nano-moles per liter, 2 hours after treatment) | spindle / microtubule morphology (confocal image) ([2]; MCF-7, PTX 0.1 nano-moles per liter, 6 hours after treatment)
1 | CCCSc1ccc2nc(NC(=O)OC)[nH]c2c1 [ABZ, Albendazole] | 25 | 70 | about 60% | about 90% | abnormally reduced numbers of spindles or monopolar (monoaster) spindles | monoastered MTs are observable |  |  |  |  |  | 
2 | CC(=O)O[C@H]1C(=O)[C@@]2(C)[C@H]([C@H](OC(=O)c3ccccc3)[C@]3(O)C[C@H](OC(=O)[C@H](O)[C@@H](NC(=O)c4ccccc4)c4ccccc4)C(C)=C1C3(C)C)[C@]1(OC(C)=O)CO[C@@H]1C[C@@H]2O [PTX, Paclitaxel] |  |  |  |  |  |  | about 60% | about 50% | 15 | ~75 | aggregated spindles | increased aggregation in MT spindles
